The text below walks through data of PubChem BioAssay AID248 (DTP/NCI, 2004).

This experiment concerns L1210 leukemia ip in BDF1 mice, survival T/C. In words: NCI In Vivo Anticancer Drug Screen. Data for tumor model L1210 Leukemia (intraperitoneal) in B6D2F1 (BDF1) mice. Conditions: endpoint: mean survival time, higher = longer survival. The method, boiled down: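 Mice bearing the transplanted tumor received compound or vehicle. Survival of the treated group was divided by that of the vehicle-treated control group to give the ratio.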

Setting [1] is: dose: 100.0 mg/kg/injection, schedule: Q01DX009 (ip), vehicle: Klucel (hydroxypropylcellulose) (HPC).
The mark [2] stands for this setting: dose: 200.0 mg/kg/injection, schedule: Q01DX009 (ip), vehicle: Klucel (hydroxypropylcellulose) (HPC).
[3] abbreviates: dose: 400.0 mg/kg/injection, schedule: Q01DX009 (ip), vehicle: Klucel (hydroxypropylcellulose) (HPC).
Where [4] appears, read: dose: 100.0 mg/kg/injection, schedule: Q04DX003 (ip), vehicle: Klucel (hydroxypropylcellulose) (HPC).
Setting [5] is: dose: 200.0 mg/kg/injection, schedule: Q04DX003 (ip), vehicle: Klucel (hydroxypropylcellulose) (HPC).
[6] abbreviates: dose: 400.0 mg/kg/injection, schedule: Q04DX003 (ip), vehicle: Klucel (hydroxypropylcellulose) (HPC).
The mark [7] stands for this setting: dose: 50.0 mg/kg/injection, schedule: Q01DX009 (ip), vehicle: saline with Tween-80.
Where [8] appears, read: dose: 100.0 mg/kg/injection, schedule: Q01DX009 (ip), vehicle: saline with Tween-80.
[9] abbreviates: dose: 100.0 mg/kg/injection, schedule: Q04DX003 (ip), vehicle: saline with Tween-80.
Where [10] appears, read: dose: 200.0 mg/kg/injection, schedule: Q01DX009 (ip), vehicle: saline with Tween-80.
Where [11] appears, read: dose: 200.0 mg/kg/injection, schedule: Q04DX003 (ip), vehicle: saline with Tween-80.
The mark [12] stands for this setting: dose: 400.0 mg/kg/injection, schedule: Q04DX003 (ip), vehicle: saline with Tween-80.
Where [13] appears, read: dose: 100.0 mg/kg/injection, schedule: Q04DX003 (ip), vehicle: gum acacia.
[14] abbreviates: dose: 200.0 mg/kg/injection, schedule: Q04DX003 (ip), vehicle: gum acacia.
Setting [15] is: dose: 400.0 mg/kg/injection, schedule: Q04DX003 (ip), vehicle: gum acacia.
Where [16] appears, read: dose: 100.0 mg/kg/injection, schedule: Q01DX001 (ip), vehicle: saline.
Setting [17] is: dose: 25.0 mg/kg/injection, schedule: Q01DX009 (ip), vehicle: saline with Tween-80.

Where “and” joins values, the source holds several entries; their conditions need not be identical. Equal values may be shown once. Toxic doses and inconclusive results are not listed.

In the case of `Cc1c2c(cc3c1[nH]c1ccccc13)C(C(F)(F)F)=NCC2`, the T/C reads like this: (dose: 16.0 mg/kg/injection, schedule: Q01DX005 (ip), vehicle: saline) 97 % of control; (dose: 32.0 mg/kg/injection, schedule: Q01DX005 (ip), vehicle: saline) 100 % of control; (dose: 64.0 mg/kg/injection, schedule: Q01DX005 (ip), vehicle: saline) 100 % of control; (dose: 128.0 mg/kg/injection, schedule: Q01DX005 (ip), vehicle: saline) 101 % of control.

With `O=C(O)c1ccc([N+](=O)[O-])c(P(=O)(O)O)c1`, the T/C runs as follows: (dose: 75.0 mg/kg/injection, schedule: Q01DX001 (ip), vehicle: saline) 96 % of control; (dose: 150.0 mg/kg/injection, schedule: Q01DX001 (ip), vehicle: saline) 109 % of control.

Consider `C/C(=C/c1ccc([N+](=O)[O-])cc1)C(=O)O`, for which the T/C is 96 % of control under setting [1], 115 % of control under setting [2] and 107 % of control under setting [3].

For `OC(Cc1ccccc1)(c1ccccc1)c1cccc2ccccc12` (stereo not drawn), the T/C reads like this: under setting [1], 90 % of control; under setting [4], 100 % of control; under setting [2], 95 % of control; under setting [5], 109 % of control; under setting [3], 92 % of control; under setting [6], 97 % of control.

For `CC1(C)N=C(N)N=C(N)N1c1ccc(OCC(=O)Nc2ccccc2)c(Cl)c1`, the T/C is 102 % of control under setting [1]; 97 % of control under setting [4]; 94 % of control under setting [2]; 90 % of control under setting [5]; 93 % of control under setting [3]; 92 % of control under setting [6].

For the molecule `CCOC(=O)C1=C(O)c2c(sc(C)c2C)N(S(=O)(=O)c2ccc(C)cc2)CC1`, the T/C runs as follows: under setting [7], 93 % of control; (dose: 50.0 mg/kg/injection, schedule: Q04DX003 (ip), vehicle: saline with Tween-80) 97 % of control; under setting [8], 90 % of control; under setting [9], 101 % of control; under setting [10], 96 % of control; under setting [11], 93 % of control. Under setting [12], the T/C was 98 % of control.

In the case of `c1ccc(CSn2cnc3nc4ccccc4c-3c2)cc1`, the T/C under setting [13] is 91 % of control, the T/C under setting [14] was 91 % of control and the T/C under setting [15] is 91 % of control.

In the case of `C=CCNC(=S)Nc1cccc(C(C)OC(=O)NC(C)(C)C)c1` (stereo not drawn), the T/C is, setting by setting: under setting [8], 106 % of control; under setting [9], 95 % of control; under setting [10], 107 % of control; under setting [11], 93 % of control; under setting [12], 94 % of control.

In the case of `CC(=O)OC1COC(NC(=O)N(CCCl)N=O)C(OC(C)=O)C1OC(C)=O` (stereo not drawn), the T/C by setting is: (dose: 9.0 mg/kg/injection, schedule: Q01DX001 (ip), vehicle: saline with Tween-80) 211 % of control; (dose: 13.0 mg/kg/injection, schedule: Q01DX001 (ip), vehicle: saline with Tween-80) 284 % of control; (dose: 20.0 mg/kg/injection, schedule: Q01DX001 (ip), vehicle: saline with Tween-80) 459 % of control; (dose: 30.0 mg/kg/injection, schedule: Q01DX001 (ip), vehicle: saline with Tween-80) 294 % of control.

Consider `O=C(Nc1ccc(C(=O)O)c(O)c1)Nc1ccccc1C(F)(F)F`, for which the T/C is 92 % of control (dose: 50.0 mg/kg/injection, schedule: Q01DX001 (ip), vehicle: carboxymethylcellulose (CMC)); 100 % of control and 106 % of control (dose: 50.0 mg/kg/injection, schedule: Q01DX009 (ip), vehicle: carboxymethylcellulose (CMC)); 93 % of control (dose: 50.0 mg/kg/injection, schedule: Q04DX003 (ip), vehicle: carboxymethylcellulose (CMC)); 101 % of control (dose: 100.0 mg/kg/injection, schedule: Q01DX001 (ip), vehicle: carboxymethylcellulose (CMC)); 105 % of control and 92 % of control (dose: 100.0 mg/kg/injection, schedule: Q01DX009 (ip), vehicle: carboxymethylcellulose (CMC)); 94 % of control and 97 % of control (dose: 100.0 mg/kg/injection, schedule: Q04DX002 (ip), vehicle: carboxymethylcellulose (CMC)). Further, the T/C is 88 % of control (dose: 100.0 mg/kg/injection, schedule: Q04DX003 (ip), vehicle: carboxymethylcellulose (CMC)); 97 % of control (dose: 200.0 mg/kg/injection, schedule: Q01DX001 (ip), vehicle: carboxymethylcellulose (CMC)); 91 % of control and 92 % of control (dose: 200.0 mg/kg/injection, schedule: Q01DX009 (ip), vehicle: carboxymethylcellulose (CMC)); 101 % of control and 108 % of control (dose: 200.0 mg/kg/injection, schedule: Q04DX002 (ip), vehicle: carboxymethylcellulose (CMC)); 89 % of control (dose: 200.0 mg/kg/injection, schedule: Q04DX003 (ip), vehicle: carboxymethylcellulose (CMC)); 103 % of control (dose: 400.0 mg/kg/injection, schedule: Q04DX002 (ip), vehicle: carboxymethylcellulose (CMC)).

Take `COc1ccc2c(c1C)CCC1(CO)C(C(C)=O)=CCC21` (stereo not drawn): the T/C reads like this: under setting [1], 105 % of control; under setting [4], 92 % of control; under setting [2], 110 % of control; under setting [5], 97 % of control; under setting [3], 100 % of control; under setting [6], 102 % of control.

For `Cc1cc(/C=C2\C=Cc3ccccc32)ccc1N(C)C`, the T/C is, setting by setting: under setting [16], 94 % of control; (dose: 200.0 mg/kg/injection, schedule: Q01DX001 (ip), vehicle: saline) 93 % of control; (dose: 400.0 mg/kg/injection, schedule: Q01DX001 (ip), vehicle: saline) 98 % of control.

On to `CCCCCCCCCCCCCCCCCCNC(=O)Nc1cc(C)ccc1C`, for which the T/C was 87 % of control (dose: 100.0 mg/kg/injection, schedule: Q01DX009 (ip), vehicle: gum acacia); 92 % of control under setting [13]; 96 % of control (dose: 200.0 mg/kg/injection, schedule: Q01DX009 (ip), vehicle: gum acacia); 92 % of control under setting [14]; 92 % of control (dose: 400.0 mg/kg/injection, schedule: Q01DX009 (ip), vehicle: gum acacia); 87 % of control under setting [15].

As for `O=c1oc(-c2ccc(Cl)cc2)nc2cc(Cl)ccc12`, the T/C is, setting by setting: under setting [17], 93 % of control; under setting [7], 97 % of control; under setting [8], 93 % of control.

As for `Cc1ccc(C(C)C)c(OCC(O)Cn2ccnc2)c1` (stereo not drawn), the T/C was 103 % of control (dose: 20.0 mg/kg/injection, schedule: Q01DX001 (ip), vehicle: saline); 101 % of control (dose: 40.0 mg/kg/injection, schedule: Q01DX001 (ip), vehicle: saline); 88 % of control (dose: 80.0 mg/kg/injection, schedule: Q01DX001 (ip), vehicle: saline); 94 % of control under setting [16].

Turning to `O=C(Nc1cccc(S(=O)(=O)F)c1)/C(=C/c1ccc([N+](=O)[O-])cc1)c1ccccc1`, the T/C is, setting by setting: (dose: 100.0 mg/kg/injection, schedule: Q01DX001 (ip), vehicle: Klucel (hydroxypropylcellulose) (HPC)) 89 % of control; (dose: 200.0 mg/kg/injection, schedule: Q01DX001 (ip), vehicle: Klucel (hydroxypropylcellulose) (HPC)) 99 % of control; (dose: 400.0 mg/kg/injection, schedule: Q01DX001 (ip), vehicle: Klucel (hydroxypropylcellulose) (HPC)) 99 % of control.

Regarding `N#CC1(C#N)C(c2ccccc2)C1(C#N)C#N`, the T/C (dose: 6.25 mg/kg/injection, schedule: Q01DX009 (ip), vehicle: saline with Tween-80) was 107 % of control; the T/C (dose: 6.25 mg/kg/injection, schedule: Q04DX003 (ip), vehicle: saline sonified) is 102 % of control; the T/C (dose: 12.5 mg/kg/injection, schedule: Q01DX009 (ip), vehicle: saline with Tween-80) was 105 % of control; the T/C (dose: 12.5 mg/kg/injection, schedule: Q04DX003 (ip), vehicle: saline sonified) was 113 % of control; the T/C under setting [17] is 105 % of control; the T/C (dose: 25.0 mg/kg/injection, schedule: Q04DX003 (ip), vehicle: saline sonified) is 96 % of control.
